According to patent US9573913B2, “Cathepsin cysteine protease inhibitors” (Merck Sharp & Dohme Corp., priority 2013, dated 2017):

Key:
[1] = target: human cathepsin K (UniProt P43236); assay: Cathepsin K Assay (hrbCat K); format: biochemical; details: Z-Leu-Arg-AMC substrate, pH 5.5, 15 min preincubation; read-out: hrbCat K (IP (nM))
Outline: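 Human cathepsin K (0.4 nM) was preincubated 15 min at room temperature with compound in 50 mM MES pH 5.5, 2.5 mM EDTA, 2.5 mM DTT and 10% DMSO. Inhibition was fitted to a dose-response model.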

[2] = target: T1, human cathepsin F (Homo sapiens, UniProt Q9UBX1); assay: Cathepsin F assay (hCat F); format: biochemical; details: Z-Phe-Arg-AMC substrate, pH 5.5, 15 min preincubation; read-out: hCat F (IP (nM))
T1 sequence (Q9UBX1 271-484): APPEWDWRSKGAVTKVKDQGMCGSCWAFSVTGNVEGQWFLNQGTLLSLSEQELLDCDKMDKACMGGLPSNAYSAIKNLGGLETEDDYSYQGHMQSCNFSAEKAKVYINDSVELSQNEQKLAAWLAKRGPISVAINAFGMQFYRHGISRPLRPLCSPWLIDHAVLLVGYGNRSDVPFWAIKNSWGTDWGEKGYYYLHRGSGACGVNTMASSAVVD
Outline: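 Enzyme (10 nM) was preincubated 15 min at room temperature with compounds (1/3 DMSO dilution series, 500–0.025 μM) in 50 mM MES pH 5.5, 2.5 mM EDTA, 2.5 mM DTT, 10% DMSO. Z-Phe-Arg-AMC (8 μM) was added and AMC fluorescence (Ex 360/Em 460 nm) followed for 20 min. % inhibition was fitted to dose-response curves.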

Compound	IC50 [1] [nM]	IC50 [2] [nM]
N#CC1(NC(=O)[C@@H]2CCCC[C@H]2c2nc(Nc3ccc(F)cc3F)sc2-c2ccc(N3CCS(=O)(=O)CC3)cc2)CC1 [Example 181, (1R,2R)-N-(1-cyanocyclopropyl)-2-(2-((2,4-difluorophenyl)amino)-5-(4-(1,1-dioxidothiomorpho-lino)phenyl)thiazol-4-yl)cyclohexane-carboxamide]	31.9	3490
N#CN=S1(=O)CCN(c2ccc(-c3sc(-c4ccc(F)cc4)nc3[C@@H]3CCCC[C@H]3C(=O)NC3(C#N)CC3)cc2)CC1 [Example 182, (1R,2R)-N-(1-cyanocyclopropyl)-2-(5-(4-(1-(cyanoimino)-1-oxidothiomorpholino)phenyl)-2-(4-fluorophenyl)thiazol-4-yl)cyclohexane-carboxamide]	2.72	3330
N#CC1(NC(=O)[C@@H]2CCCC[C@H]2c2nc(C3(c4ccc(F)cc4)CC3)sc2-c2ccc(N3CCS(=O)(=O)CC3)cc2)CC1 [Example 184, (1R,2R)-N-(1-cyanocyclopropyl)-2-(5-(4-(1,1-dioxidothiomorpho-lino)phenyl)-2-(1-(4-fluorophenyl)cyclo-propyl)thiazol-4-yl)cyclohexane-carboxamide]	5.2	1580
N#CC1(NC(=O)[C@@H]2CCCC[C@H]2c2nc(Oc3ccc(F)cc3)sc2-c2ccc(N3CCS(=O)(=O)CC3)cc2)CC1 [Example 189, (1R,2R)-N-(1-cyanocyclopropyl)-2-(5-(4-(1,1-dioxidothiomorpho-lino)phenyl)-2-(4-fluorophenoxy)thia-zol-4-yl)cyclohexane-carboxamide]	5.1	788
N#CC1(NC(=O)[C@@H]2CCCC[C@H]2c2nc(N)sc2-c2ccc(N3CCS(=O)(=O)CC3)cc2)CC1 [Example 190, (1R,2R)-2-(2-amino-5-(4-(1,1-dioxidothiomorpho-lino)phenyl)thiazol-4-yl)-N-(1-cyanocyclopropyl) cyclohexanecarbox-amide]	13.2	7410
N#CC1(NC(=O)[C@@H]2CCCC[C@H]2c2nc(Oc3ccc(F)cc3F)sc2-c2ccc(N3CCS(=O)(=O)CC3)cc2)CC1 [Example 198, (1R,2R)-N-(1-cyanocyclopropyl)-2-(2-(2,4-difluorophenoxy)-5-(4-(1,1-dioxidothiomorpho-lino)phenyl)thiazol-4-yl)cyclohexane-carboxamide]	4.2	1020
CC(C)S(=O)(=O)c1ccc(-c2sc(-c3cncc(F)c3)nc2[C@@H]2CCCC[C@H]2C(=O)NC2(C#N)CC2)cc1 [Example 199, (1R,2R)-N-(1-cyanocyclopropyl)-2-(2-(5-fluoropyridin-3-yl)-5-(4-(isopropylsulfonyl)phenyl)thiazol-4-yl)cyclohexane-carboxamide]	25.8	846
N#CC1(NC(=O)[C@@H]2CCCC[C@H]2c2nc(NS(=O)(=O)c3ccccc3)sc2-c2ccc(N3CCS(=O)(=O)CC3)cc2)CC1 [Example 200, (1R,2R)-N-(1-cyanocyclopropyl)-2-(5-(4-(1,1-dioxidothiomorpho-lino)phenyl)-2-(phenylsulfonamido)thiazol-4-yl)cyclohexane-carboxamide]	116	≥ 10000
CN(c1nc([C@@H]2CCCC[C@H]2C(=O)NC2(C#N)CC2)c(-c2ccc(N3CCS(=O)(=O)CC3)cc2)s1)S(=O)(=O)c1ccccc1 [Example 201, (1R,2R)-N-(1-cyanocyclopropyl)-2-(5-(4-(1,1-dioxidothiomorpho-lino)phenyl)-2-(N-methylphenylsulfon-amido)thiazol-4-yl)cyclohexane-carboxamide]	1.2	712
Cc1nc([C@@H]2CC[C@H](F)C[C@H]2C(=O)N[C@@H](C)C#N)c(-c2ccc(N3CCS(=O)(=O)CC3)cc2)s1 [Example 206, (1R,2R,5S)-N-((S)-1-cyanoethyl)-2-(5-(4-(1,1-dioxidothiomorpho-lino)phenyl)-2-methylthiazol-4-yl)-5-fluorocyclohexane-carboxamide]	5	9010
C[C@@H](C#N)NC(=O)[C@@H]1C[C@@H](F)CC[C@H]1c1nc(C(C)(C)C)sc1-c1ccc(N2CCS(=O)(=O)CC2)cc1 [Example 207, (1R,2R,5S)-2-(2-(tert-butyl)-5-(4-(1,1-dioxidothiomorpho-lino)phenyl)thiazol-4-yl)-N-((S)-1-cyanoethyl)-5-fluorocyclohexane-carboxamide]	1.6	2570
CC(C)(O)c1nc([C@@H]2CCCC[C@H]2C(=O)NC2(C#N)CC2)c(-c2ccc(N3CCS(=O)(=O)CC3)cc2)s1 [Example 208, (1R,2R)-N-(1-cyanocyclopropyl)-2-(5-(4-(1,1-dioxidothiomorpho-lino)phenyl)-2-(2-hydroxypropan-2-yl)thiazol-4-yl)cyclohexane-carboxamide]	7.9	≥ 10000

The remaining lines, values ahead:

IC50 [1] [nM]	IC50 [2] [nM]	Compound
5.7	810	N#CC1(NC(=O)[C@@H]2CCCC[C@H]2c2nc(C(F)(F)c3ccccc3)sc2-c2ccc(N3CCS(=O)(=O)CC3)cc2)CC1 [Example 183, (1R,2R)-N-(1-cyanocyclopropyl)-2-(2-(difluoro(phenyl)methyl)-5-(4-(1,1-dioxidothiomorpho-lino)phenyl)thiazol-4-yl)cyclohexane-carboxamide]
1.4	1940	Cc1ccc(-c2nc([C@@H]3CC[C@H](F)C[C@H]3C(=O)N[C@@H](C)C#N)c(-c3ccc(N4CCS(=O)(=O)CC4)cc3)s2)nn1 [Example 195, (1R,2R,5S)-N-((S)-1-cyanoethyl)-2-(5-(4-(1,1-dioxidothiomorpho-lino)phenyl)-2-(6-methylpyridazin-3-yl)thiazol-4-yl)-5-fluorocyclohexane-carboxamide]
2.4	2020	Cc1ccc(-c2nc([C@@H]3CC[C@H](F)C[C@H]3C(=O)NC3(C#N)CC3)c(-c3ccc(N4CCS(=O)(=O)CC4)cc3)s2)nn1 [Example 196, (1R,2R,5S)-N-(1-cyanocyclopropyl)-2-(5-(4-(1,1-dioxidothiomorpho-lino)phenyl)-2-(6-methylpyridazin-3-yl)thiazol-4-yl)-5-fluorocyclohexane-carboxamide]
512	≥ 10000	N#CC1(NC(=O)[C@@H]2C[C@@H](F)CC[C@H]2c2nc(-c3ccc(C(F)(F)F)nn3)sc2-c2ccc(N3CCS(=O)(=O)CC3)cc2)CC1 [Example 197, (1R,2R,5S)-N-(1-cyanocyclopropyl)-2-(5-(4-(1,1-dioxidothiomorpho-lino)phenyl)-2-(6-(trifluoromethyl)pyridazin-3-yl)thiazol-4-yl)-5-fluorocyclohexane-carboxamide]
88.2	3330	N#CC1(NC(=O)[C@@H]2CCC(Cl)(Cl)C[C@H]2c2nc(-c3ccc(F)cn3)sc2-c2ccc(N3CCS(=O)(=O)CC3)cc2)CC1 [Example 204, (1R,2R)-4,4-dichloro-N-(1-cyanocyclopropyl)-2-(5-(4-(1,1-dioxidothiomorpho-lino)phenyl)-2-(5-fluoropyridin-2-yl)thiazol-4-yl)cyclohexane-carboxamide]
6.4	≥ 10000	Cc1nc([C@@H]2CC[C@H](F)C[C@H]2C(=O)NC2(C#N)CC2)c(-c2ccc(N3CCS(=O)(=O)CC3)cc2)s1 [Example 205, (1R,2R,5S)-N-(1-cyanocyclopropyl)-2-(5-(4-(1,1-dioxidothiomorpho-lino)phenyl)-2-methylthiazol-4-yl)-5-fluorocyclohexane-carboxamide]
